Results reported in PMC9623576, “Semisynthesis and Evaluation of Anti-Inflammatory Activity of the Cassane-Type Diterpenoid Taepeenin F and of Some Synthetic Intermediates” (Journal of Natural Products, 2022).
Entries after “also recorded” stand apart in the source; their conditions may differ.

Columns and labels:
B16-F10 cells [1] = assay: Annexin V-FITC/propidium iodide apoptosis flow cytometry; assay type: cell-based, murine; settings: for apoptotic effect: B16-F10, after 24 h of treatment
Excerpt: Cytometric FACS analysis using annexin V-FITC and PI staining was used to differentiate four cell populations (Figure 5): normal cells (annexin V^– and PI^–), early apoptotic cells (annexin V^+ and PI^–), late apoptotic cells (annexin V^+ and PI^+), and necrotic cells (annexin V^– and PI^+).[33]
To confirm the proapoptotic effect of compounds 16 and 22, annexin V and PI double staining was detected with flow cytometry. An early indicator of apoptosis is the translocation of the membrane phospholipid phosphatidylserine from the cytoplasmic interface to the external surface of the plasmatic membrane. The phospholipid phosphatidylserine that accumulates on the external plasmatic membrane can be detected by annexin V/PI is a fluorescent dye that binds to the nuclei of dead cells. Apoptosis was assessed by flow cytometry using a FACScan (fluorescence-activated cell sorter) flow cytometer (Coulter Corporation, Hialeah, FL, USA).[37],[38] For this assay, 5 × 10^4 B16-F10 cells were plated in 24-well plates with 1.5 mL of medium and incubated for 24 h. […] Cells were collected and resuspended in a binding buffer (10 mM HEPES/NaOH, pH 7.4, 140 mM NaCl, 2.5 mM CaCl2). Annexin V-FITC conjugate (1 μg/mL) was then added and incubated for 15 min at room temperature in darkness. Just before the analysis by flow cytometry, cells were stained with 5 μL of 1 mg/mL PI solution. In each experiment, approximately 10 × 10^3 cells were analyzed, and the experiment was duplicated twice.

[2] = system: B16-F10 murine melanoma cells; assay: MTT cancer cell proliferation assay, B16-F10; assay type: cell-based; settings: Mus musculus, B16-F10, 72 h, MTT; for IC50: read-out: IC50; for IC20: read-out: IC20
Method: The five newly synthesized diterpenoids were evaluated for their cytotoxic effects against three selected tumor cell lines, B16-F10 murine melanoma cells, HT29 human colon adenocarcinoma cells, and HepG2 human hepatocarcinoma cells at increasing concentrations (0–100 μg/mL). After 72 h of treatment, cell viability was determined by an MTT assay, where the tetrazolium dye was transformed into formazan in the mitochondria of viable cells, its absorbance measured at 570 nm and expressed as a percentage with respect to untreated control cells (S3 Figure.). The concentrations required for 20, 50, and for 80% growth inhibition (IC20, IC50, and IC80) were also determined for each compound (Table 2).
A stock solution was frozen and stored at […]. Before the experiments, this solution was diluted in cell-culture medium to the adequate concentrations for each experiment. […] For nitrite assay, subcytotoxic concentrations (3/4IC50, 1/2IC50, and 1/4IC50), were used to ensure that the NO inhibitory potential was not due to a possible cytotoxic effect. The concentrations of 3/4IC50, 1/2IC50, and 1/4IC50 were used for the cell-cycle analysis. All experiments were measured and compared with control (untreated cells after 24, 48, or 72 h of treatment.)
Human colorectal adenocarcinoma cell line HT29 (ECACC no. 9172201; ATCC no. HTB-38), human hepatocarcinome cell line HepG2 (ECACC no. 85011430), mouse melanoma cells B16-F10 (ATCC no. CRL-6475), and murine monocyte/macrophage-like RAW 264.7 cell line (ATCC no, TIB-71) were cultured in DMEM (Dulbecco’s modified Eagle’s medium) supplemented with 2 mM glutamine, 10% heat-inactivated FCS (fetal calf serum), 10 000 units/mL of penicillin and 10 mg/mL of streptomycin, (for all cancer cell lines), 50 μg/mL of gentamicin (only for RAW 264.7 cell line), and incubated at 37 °C, in an atmosphere of 5% CO2 and 95% humidity. The culture media were changed every 48 h, and the confluent cultures were separated with a trypsin solution (0.25% EDTA). In all experiments, monolayer cells were grown to 80–90% confluence, in sterile cell culture flasks. All cell lines used were purchased from the cell bank of the University of Granada, Spain.
The cytotoxicity assay was performed by the MTT (3-(4,5-dimethylthiazol-2-yl)-2,5-diphenyltetrazolium bromide) method.[21] To quantify the cytotoxicity of compounds, the fresh and suspended cells were seeded in 96-well plates to a volume of 100 μL at 6.0 × 10^3 cells/mL for HT29 and RAW 264.7 cell lines, at 5.0 × 10^3 cells/mL for B16-F10 cells and 15.0 × 10^3 for Hep G2. Then, cells were incubated to adhere over 24 h at 37 °C with 5% CO2. All tested compounds were prepared in fresh growth medium. After 24 h, an additional 100 μL of medium with the corresponding concentrations of products (only medium in the control wells) was added to the corresponding wells, at various final concentrations (0–100 μg/mL). Finally, after 72 h of incubation at 37 °C with 5% CO2, the medium with the compounds were removed and 100 μL of MTT solution (0.5 mg/mL) in 50% of PBS 50% of medium was added to each well. After 1.5 h of incubation, formazan was resuspended in 100 μL of DMSO, and each concentration was tested in triplicate. Relative cell viability, with respect to untreated control cells, was measured by absorbance at 570 nm on an ELISA plate reader (Tecan Sunrise MR20-301, TECAN, Austria).
Cytotoxicity experimental data were fitted to a sigmoidal function (y = ymax/(x/a)^−b) by nonlinear regression. […] These analyses were performed using SigmaPlot 12.5 software. Similar analyses were performed to obtain the IC50 of NO production. All data shown here are representative of at least two independent experiments performed in triplicate. All quantitative data were summarized as the mean ± standard deviation (SD).

B16-F10 cells [3] = assay: Mitochondrial membrane potential, Rh123/PI flow cytometry; assay type: cell-based, murine; settings: B16-F10, 72 h; for changes in mitochondrial membrane potential (MMP): IC50 and IC80 concentrations, Rh123/IP
Excerpt: In addition, the loss of part of MMP can be related to the secondary activation of the intrinsic apoptotic pathway as a final event in the extrinsic apoptosis mechanism. Further molecular studies will be necessary to confirm these conclusions.
The electrochemical gradient across the mitochondrial membrane was investigated by analytical flow cytometry, using dihydrorhodamine (DHR). DHR is oxidized in contact with living cells, forming a highly fluorescent product called rhodamine (Rh 123). The emitted fluorescence can be monitored by fluorescence spectroscopy using excitation and emission wavelengths of 500 and 536 nm, respectively.[37]−[39] […] After treatment, the culture medium was renewed by adding fresh medium with DHR to a final concentration of […]. Cells were incubated for 1 h at 37 °C in an atmosphere of 5% CO2 and 95% humidity and subsequently washed and resuspended in PBS with 5 μg/mL of PI. The fluorescence intensity was measured using a FACScan flow cytometer (fluorescence-activated cell sorter). The experiments were performed three times with two replicates per assay.

[4] = B16-F10, 48 h, IC50 concentration
[5] = B16-F10, 48 h, IC80 concentration
[6] = B16-F10, 72 h, IC50 concentration
[7] = B16-F10, 72 h, IC80 concentration

Row | Compound | early apoptosis (Q4, annexin V+ PI-) (B16-F10 cells [1]; [4]) | late apoptosis (Q2, annexin V+ PI+) (B16-F10 cells [1]; [4]) | total apoptosis (B16-F10 cells [1]; [4]) | early apoptosis (Q4, annexin V+ PI-) (B16-F10 cells [1]; [5]) | late apoptosis (Q2, annexin V+ PI+) (B16-F10 cells [1]; [5]) | total apoptosis (B16-F10 cells [1]; [5]) | early apoptosis (Q4, annexin V+ PI-) (B16-F10 cells [1]; [6]) | late apoptosis (Q2, annexin V+ PI+) (B16-F10 cells [1]; [6]) | total apoptosis (B16-F10 cells [1]; [6]) | early apoptosis (Q4, annexin V+ PI-) (B16-F10 cells [1]; [7]) | late apoptosis (Q2, annexin V+ PI+) (B16-F10 cells [1]; [7]) | total apoptosis (B16-F10 cells [1]; [7]) | apoptotic effect (B16-F10 cells [1]) | IC50 [2] | IC80 [2] | IC20 [2] | changes in mitochondrial membrane potential (MMP) (B16-F10 cells [3]) | population of Rh123 negative cells versus control untreated cells (B16-F10 cells [3]; IC80 concentration)
1 | COC(=O)[C@]1(C)CCC[C@@]2(C)[C@H]1CC=C1C(C)=C(C(C)C)C(=O)C[C@@H]12 [Compound 16, (1R,4aR,10aR)-Methyl 7-isopropyl-1,4a,8-trimethyl-6-oxo-1,2,3,4,4a,4b,5,6,10,10a-decahydrophenanthrene-1-carboxylate] | 3.73% | 9.40% | 13.13% | 12.06% | 14.53% | 26.6% | 0.06% | 7.63% | 7.7% | 27.63% | 21.13% | 48.76% | did not exert a significant effect | 22.2 ± 1.16 µM | 35.8 ± 3.35 µM | 14.2 ± 0.19 µM | did not cause any loss of the mitochondrial membrane potential; also recorded: did not produce any changes in MMP | 
2 | COC(=O)[C@]1(C)CCC[C@]2(C)c3cc(O)c(C=O)c(C)c3CC[C@@H]12 [Compound 21, (1R,4aS,10aR)-Methyl 7-formyl-6-hydroxy-1,4a,8-trimethyl-1,2,3,4,4a,9,10,10a-octahydrophenanthrene-1-carboxylate] | 6.93% | 18.30% | 25.23% | 5.73% | 27.13% | 32.86% | 5.33% | 17.03% | 22.36% | 23.56% | 17.66% | 41.23% | did not exert a significant effect | 7.72 ± 3.92 µM | 20.1 ± 7.72 µM | 3.18 ± 2.3 µM | partial loss of the MMP | higher
